In US7198811B2, “Compositions for the preservation of fruits and vegetables” (University of Guelph, priority 2002, dated 2007):

system: Cortland apples; assay: Superficial scald and softening in Cortland apples versus duration of dip treatment; type: in vivo; conditions: 1 minute, 1500 ppm; CA storage 9 months
Procedure: The effects of antioxidant formulation of the present invention, and subgroups of its chemical components on post harvest qualities of Cortland apples were investigated.
The effect of the duration of dip treatment of Cortland apples using the antioxidant formulation (Example 1, Solution B) is presented in Table 3C. Ten ml of the formulation of was diluted to a liter. […] Twenty randomly selected apples from each of the treatments were removed and kept at room temperature for a week before evaluations were conducted.
Ten ml of the concentrate of the EAM formulation was diluted to one liter to form the final solution. […] Two bushels of apples were dipped in 40 liters of solution for each time period and subjected to controlled atmosphere storage as defined above. Apples were brought out after 9 months of storage. Twenty apples from each treatment were picked randomly from two independent sets, and left at room temperature for one week before evaluating for scald and softening.
Ten ml of the concentrate of the AOX formulation was diluted to one liter to form the final solution. […] Two bushels of apples were dipped in 40 liters of solution for each time period and subjected to controlled atmosphere storage as defined above. Apples were brought out after 9 months of storage. […]

SMILES	Softening %	Superficial scald %
c1ccc(Nc2ccccc2)cc1 [DPA, diphenylamine]	25%	35%

system: Vista Cherries; assay: Postharvest dips of compositions or individual components on Vista cherries; also: dipped 2.5 min; type: in vivo; conditions: dipped […], concentration as printed per treatment; stored 4° C. in air
Procedure: Samples were allowed to dry at room temperature and stored at 4° C. in air. Evaluations were conducted two weeks and four weeks after treatment. The results given are mean of twenty sample values.

SMILES	Firmness (kg) 2 weeks	Firmness (kg) 4 weeks	Soluble Solids (%) 2 weeks	Soluble Solids (%) 4 weeks
O=C1O[C@H]([C@@H](O)CO)C(O)=C1O [Ascorbic Acid]	1.2 kg	1.12 kg		
[Ca+2].[Cl-].[Cl-] [CaCl2, calcium chloride]	1.26 kg	1.09 kg		
CCCCCC=O [Hexanal]	1.24 kg	1.16 kg		
c1ccc(CNc2ncnc3nc[nH]c23)cc1 [BA, benzyladenine]	1.24 kg	1.14 kg	13.8%	
Cc1c(C)c2c(c(C)c1O)CC[C@@](C)(CCC[C@H](C)CCC[C@H](C)CCCC(C)C)O2 [α-tocopherol]	1.21 kg	1.12 kg		16.7%
CC(=O)OC/C=C(\C)CCC=C(C)C [Geranyl Acetate]	1.21 kg	1.12 kg	17%	
CC(C)=CCC/C(C)=C/CO [Geraniol]	1.01 kg	1.24 kg		17%
